Results published in article PMC1660542, “Structure-based discovery of inhibitors of the YycG histidine kinase: New chemical leads to combat Staphylococcus epidermidis infections” (BMC Microbiology, 2006).

Tests used:
S. epidermidis RP62A = assay: MIC assay (broth dilution in tubes, CLSI); assay type: cell-based; conditions: Staphylococcus epidermidis; S. epidermidis RP62A (biofilm-forming strain); read-out: Minimal inhibitory concentration (MIC)
Text: (§1) Staphylococcus epidermidis ATCC12228 and RP62A strains were purchased from the American Type Culture Collection (ATCC, Manassas, USA). Staphylococcus aureus ATCC29213, Escherichia coli ATCC25922 and Pseudomonas aeruginosa ATCC27853 were kindly provided by Dr. Bijie Hu at Zhongshan Hospital (Shanghai, China). S. epidermidis strains se527, se886, se847, seG203, Streptococcus pyogenes strain 144, and Streptococcus mutans strain 128 were all clinical isolates from Zhongshan Hospital and Huashan Hospital (Shanghai, China). If not stated otherwise, S. epidermidis and S. aureus strains were grown at 37°C in tryptic soy broth (TSB, Oxoid) containing 0.25% glucose, E. coli and P. aeruginosa strains were grown at 37°C in Luria-Bertani (LB, Oxoid).
(§2) MIC assays for the antibacterial activities of the compounds were performed according to the broth micro-dilution (in tubes) method of the Clinical and Laboratory Standards Institute (CLSI) of America. The Minimal Bactericidal Concentration (MBC) was obtained by subculturing 100 μl from each negative (no visible bacterial growth) tube from the MIC assay, onto substance-free Mueller-Hinton agar plates. The plates were incubated at 37°C for 24 hours, and the MBC was defined as the lowest concentration of substance which produced subcultures growing no more than five colonies on each plate.

YycG' protein = target: T1, YycG' protein (Staphylococcus epidermidis, UniProt Q8CU87); assay: Inhibition of YycG' ATPase activity / autophosphorylation (Kinase-Glo Luminescent Kinase Assay); assay type: biochemical; conditions: 3 μM ATP
T1 construct: of YycG (370aa to 610aa) was amplified by PCR; His-tag (pET28a) (N); made in house; host or cells: E. coli BL21 (pET28a, pETYycG')
Method: The inhibitory activities of the compounds for the ATPase activity of the YycG' protein was measured using the Kinase-Glo™ Luminescent Kinase Assay (Promega, Madison, USA). Briefly, 4 μg YycG' protein was pre-incubated with a series of dilution of compounds in the reaction buffer (40 mM Tris [pH 7.5], 20 mM MgCl2, and 0.1 mg/ml BSA), at 25°C for 30 min. Then 3 μM ATP was added for another incubation of 30 min at 25°C, and Kinase-Glo™ Reagent was added to detect the rest amount of ATP, as recorded from luminescence measurements (RLU). In parallel, theYycG' protein with no addition of compounds was used as the control. The rate of inhibiting protein phosphorylation (Rp) by the compounds was calculated from equation 1:
Rp=RLU(YycG^′+compound+ATP+Reagent)−RLU(YycG^′+ATP+Reagent)/RLU(ATP+Reagent)−RLU(YycG^′+ATP+Reagent)×100% (1) MathType@MTEF@5@5@+=feaafiart1ev1aaatCvAUfKttLearuWrP9MDH5MBPbIqV92AaeXatLxBI9gBaebbnrfifHhDYfgasaacH8akY=wiFfYdH8Gipec8Eeeu0xXdbba9frFj0=OqFfea0dXdd9vqai=hGuQ8kuc9pgc9s8qqaq=dirpe0xb9q8qiLsFr0=vr0=vr0dc8meaabaqaciaacaGaaeqabaqabeGadaaakeaacqqGsbGudaWgaaWcbaGaeeiCaahabeaakiabg2da9maalaaabaGaeeOuaiLaeeitaWKaeeyvauLaeiikaGIaeeywaKLaeeyEaKNaee4yamMafe4raCKbauaacqGHRaWkcqqGJbWycqqGVbWBcqqGTbqBcqqGWbaCcqqGVbWBcqqG1bqDcqqGUbGBcqqGKbazcqGHRaWkcqqGbbqqcqqGubavcqqGqbaucqGHRaWkcqqGsbGucqqGLbqzcqqGHbqycqqGNbWzcqqGLbqzcqqGUbGBcqqG0baDcqGGPaqkcqGHsislcqqGsbGucqqGmbatcqqGvbqvcqGGOaakcqqGzbqwcqqG5bqEcqqGJbWycuqGhbWrgaqbaiabgUcaRiabbgeabjabbsfaujabbcfaqjabgUcaRiabbkfasjabbwgaLjabbggaHjabbEgaNjabbwgaLjabb6gaUjabbsha0jabcMcaPaqaaiabbkfasjabbYeamjabbwfavjabcIcaOiabbgeabjabbsfaujabbcfaqjabgUcaRiabbkfasjabbwgaLjabbggaHjabbEgaNjabbwgaLjabb6gaUjabbsha0jabcMcaPiabgkHiTiabbkfasjabbYeamjabbwfavjabcIcaOiabbMfazjabbMha5jabbogaJjqbbEeahzaafaGaey4kaSIaeeyqaeKaeeivaqLaeeiuaaLaey4kaSIaeeOuaiLaeeyzauMaeeyyaeMaee4zaCMaeeyzauMaeeOBa4MaeeiDaqNaeiykaKcaaiabgEna0kabigdaXiabicdaWiabicdaWiabcwcaLiaaxMaacaWLjaWaaeWaaeaacqaIXaqmaiaawIcacaGLPaaaaaa@A46C@
IC50 (the concentration of inhibition of 50% YycG' protein autophosphorylation) was obtained by using the Origin v7.0 software (OriginLab, Northampton, USA).

S. aureus ATCC29213 = assay: MIC assay (broth dilution in tubes, CLSI); assay type: cell-based, Staphylococcus aureus; conditions: Staphylococcus aureus; S. aureus ATCC29213; read-out: Minimal inhibitory concentration (MIC)
Text: as §1, §2

T1 sequence (Q8CU87 370-610): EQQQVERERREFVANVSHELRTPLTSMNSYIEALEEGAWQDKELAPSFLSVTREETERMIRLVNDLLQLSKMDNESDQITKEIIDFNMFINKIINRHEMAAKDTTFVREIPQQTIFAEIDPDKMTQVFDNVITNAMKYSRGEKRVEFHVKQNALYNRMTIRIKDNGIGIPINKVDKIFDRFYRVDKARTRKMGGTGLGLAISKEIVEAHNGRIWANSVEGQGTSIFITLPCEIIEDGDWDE

## Cc1ccc(NC(=O)CN2C(=O)S/C(=C\c3ccc(OCc4cccc(C(O)O)c4)cc3)C2=O)cc1 [Compound 7]
S. epidermidis RP62A
  MIC: > 200 µM
YycG' protein; 4 μg YycG' protein, read-out: IC50 for YycG'
  IC50: 6.5 µM
YycG' protein; compound 50 μM, 4 μg protein, read-out: Inhibition of YycG' phosphorylation (decrease of ATPase activity)
  inhibition at 50 µM: 86%
S. aureus ATCC29213
  MIC: > 200 µM
